How the values were obtained:
HMGCS2 = experiment: CLZD_HMGCS2: Change in expression of HMGCS2 (primary human hepatocytes); format: cell-based; settings: 24 hr, scale not given, looks like -log10 of molar active concentration, 0 = no activity
Description: This is a collection of multiplexed gene expression assays focused on Phase I and II xenobiotic metabolizing enzymes and transporters. Human primary cell cultures were treated with chemicals at 5 concentrations (0.004-40 [drawing 42] M) for 6, 24 and 48 hr. Concentration- and time-response profiles of chemicals were measured by the expression of key nuclear receptor target genes, activities of CYP1A enzymes (EROD), and cell morphology. Fourteen gene targets were monitored by quantitative nuclease protection assay including: six representative cytochrome P-450 genes, four hepatic transporters, three Phase II conjugating enzymes, and one endogenous metabolism gene involved in cholesterol synthesis. The target genes associated with nuclear receptor pathways are as follows: [drawing 43] and [drawing 44] with [drawing 45]; [drawing 46] , [drawing 47] , [drawing 48] , [drawing 49] , [drawing 50] and [drawing 51] with [drawing 52]; [drawing 53] , [drawing 54] , [drawing 55] and [drawing 56] with [drawing 57]; [drawing 58] with [drawing 59]; and [drawing 60] with [drawing 61] . Assays were run in primary human hepatocyte cultures by CellzDirect Invitrogen Inc. (Durham, NC), in collaboration with EPA.
Multiplexed Gene Expression in Human Primary Hepatocytes: This is a collection of multiplexed gene expression assays focused on Phase I and II metabolic enzymes and transporters. […] Fourteen gene targets were monitored by quantitative nuclease protection assay: six representative cytochrome P450 genes, four hepatic transporters, three Phase II conjugating enzymes, and one endogenous metabolism gene involved in cholesterol synthesis. Cells were exposed at 5 concentrations (0.004-40 µM) for 6, 24 or 48 hr. Gene targets are sentinels for five nuclear receptor signaling pathways: AhR, CAR, PXR, FXR, and PPARα. All gene are associated with nuclear receptor pathways: CYP1A1 and CYP1A2 with AHR; ABCB1, ABCG2, CYP2B6, CYP2C9, CYP2C19 and UGT1A1 with CAR; CYP3A4, GSTA2, SLCO1B1 and SULT2A1 with PXR; HMGCS2 with PPARA; and ABCB11 with FXR. […] Detailed description of the methods, data and analysis methods for this dataset will be presented in a separate publication.

ABCB11 = experiment: CLZD_ABCB11: Change in expression of ABCB11 (primary human hepatocytes); format: cell-based; settings: 24 hr
In short: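 Cultured primary human hepatocytes treated with chemicals for 6, 24 or 48 hr across five concentrations spanning 0.004-40 µM, then transcript level measured by quantitative nuclease protection in a multiplexed format.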

LXR (NR1H3) = experiment: ATG_DR4_LXR_CIS: Factorial reporter gene assay (HepG2); format: cell-based, human; design: scale not given here; settings: scale not given, looks like -log10 of molar active concentration, 0 = no activity
Description: (§1) A multiple reporter transcription unit (MRTU) library consisting of 48 transcription factor binding sites was transfected into the HepG2 human liver hepatoma cell line. In addition to the cis-acting reporter genes (CIS), a modification of the approach was used to generate a trans-system (TRANS) with a mammalian one-hybrid assay consisting of an additional 25 MRTU library reporting the activity of nuclear receptor super-family members. […] These assays were performed by Attagene Inc. (Morrisville NC) under contract to EPA.
(§2) In addition to the cis-acting reporter genes (CIS), a modification of the approach was used to generate a trans-system (TRANS) with a mammalian one-hybrid assay consisting of an additional 25 MRTU library reporting the activity of nuclear receptor super-family members. […] Chemicals were then tested in the CIS and TRANS assays at seven concentrations starting at the MTC and followed by three-fold serial dilutions. These assays were performed by Attagene Inc. (Morrisville NC) under contract to EPA. Detailed description of the methods, data and analysis methods for this dataset will be presented in a separate publication.

[1] = target: T1, RXRB (retinoid X receptor, beta) (Homo sapiens, UniProt P28702); experiment: ATG_RXRb_TRANS: Factorial reporter gene assay (HepG2); format: cell-based; settings: HepG2; scale not given, looks like -log10 of molar active concentration; 0 = no activity
T1 construct: expressed in transfected cells; host or cells: HepG2
T1 sequence (P28702 1-533): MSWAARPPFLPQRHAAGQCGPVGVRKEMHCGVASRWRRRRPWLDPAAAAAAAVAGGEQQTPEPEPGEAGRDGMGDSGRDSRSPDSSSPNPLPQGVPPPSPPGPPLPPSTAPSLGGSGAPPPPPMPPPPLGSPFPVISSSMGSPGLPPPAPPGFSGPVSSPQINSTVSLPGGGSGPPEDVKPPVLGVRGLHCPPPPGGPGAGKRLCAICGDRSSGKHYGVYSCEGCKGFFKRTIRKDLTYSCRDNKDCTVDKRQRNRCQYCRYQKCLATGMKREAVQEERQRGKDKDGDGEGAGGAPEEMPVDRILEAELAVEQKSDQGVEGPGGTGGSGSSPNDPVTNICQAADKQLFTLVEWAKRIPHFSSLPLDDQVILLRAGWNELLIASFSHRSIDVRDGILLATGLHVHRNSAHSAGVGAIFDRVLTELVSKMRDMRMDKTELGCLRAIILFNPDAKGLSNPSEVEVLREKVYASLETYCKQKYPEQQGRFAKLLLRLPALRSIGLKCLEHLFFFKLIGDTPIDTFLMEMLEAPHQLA
Description: as §1, §2

PPARa (PPARA) = target: T2, PPARa (PPARA) (Homo sapiens, UniProt Q07869); experiment: NVS_NR_hPPARa: Human PPARa Fluormone Pan-PPAR green (cell-free HTS); format: binding; settings: scale not given, looks like -log10 of molar active concentration, 0 = no activity
T2 sequence (Q07869 1-468): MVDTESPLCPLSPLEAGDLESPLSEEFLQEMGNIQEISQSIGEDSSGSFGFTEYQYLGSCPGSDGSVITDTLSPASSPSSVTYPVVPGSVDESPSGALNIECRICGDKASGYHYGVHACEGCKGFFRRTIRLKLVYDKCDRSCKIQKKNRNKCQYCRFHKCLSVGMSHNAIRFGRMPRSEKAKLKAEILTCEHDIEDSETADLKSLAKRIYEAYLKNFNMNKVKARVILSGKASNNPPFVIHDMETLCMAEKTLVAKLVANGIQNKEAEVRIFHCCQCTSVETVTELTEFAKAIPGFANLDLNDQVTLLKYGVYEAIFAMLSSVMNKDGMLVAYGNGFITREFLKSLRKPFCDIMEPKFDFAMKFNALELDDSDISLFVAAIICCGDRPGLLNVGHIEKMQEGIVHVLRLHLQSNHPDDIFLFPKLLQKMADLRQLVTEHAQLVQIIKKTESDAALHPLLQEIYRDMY
Source text: These are a collection of biochemical assays measuring binding constants and enzyme inhibition values. Chemicals were initially screened at a single concentration in duplicate wells at a concentration of 10 [drawing 63] M for cytochrome P-450 assays and 25 [drawing 64] M for all others. […] These assays were run by Caliper Life Sciences (Hanover, MD) under contract to EPA. Short assay descriptions are available at: http://www.caliperls.com/products/contract-research/in-vitro/.
Cell-free HTS Assays: A collection of biochemical assays measuring binding constants and enzyme inhibition values. […] These assays were run by Caliper Life Sciences (Hanover, MD) under contract to EPA. Short assay descriptions are available at http://www.caliperls.com/products/contract-research/in-vitro/. Values for all endpoints were imported into GeneData Screener (Basel, Switzerland) and normalised to solvent controls from the same plate as the tested compounds and expressed as percent of neutral control. Concentration-response curves were fit in GeneData Screener (Basel, Switzerland) Condeseo module using the Hill equation and AC50 values were determined. […] Detailed description of the methods, data and analysis methods for this dataset are described in a separate publication.

[2] = scale not given, looks like -log10 of molar active concentration, 0 = no activity

Compound	CLZD_HMGCS2_24 (HMGCS2)	CLZD_ABCB11_24 (ABCB11; [2])	ATG_DR4_LXR_CIS (LXR (NR1H3))	ATG_RXRb_TRANS [1]	NVS_NR_hPPARa (PPARa (PPARA))	CLZD_ABCB11_24 (ABCB11)
Nc1cnn(-c2ccccc2)c(=O)c1Cl [r56]	0	0	0	0	0	
CCC(C)n1c(=O)[nH]c(C)c(Br)c1=O (stereo not drawn) [r43]	0	0	0	0	0	
CC(C)OC(=O)Nc1cccc(Cl)c1 [r59]	0	0	0	0	0	
N#Cc1cc(Br)c(O)c(Br)c1 [r44]	0	0	0	0	0	
CCCCOCN(C(=O)CCl)c1c(CC)cccc1CC [r46]	0	0	0	0	0	
Cc1ccccc1CO[C@@H]1C[C@@]2(C(C)C)CC[C@]1(C)O2 [r64]	0	0	0	0	0	
COc1nc(C)nc(NC(=O)NS(=O)(=O)c2ccccc2Cl)n1 [r62]	0	0	0	0	0	
CC(C)(c1ccc(O)cc1)c1ccc(O)cc1 [r40]	0	0	0	0	0	
CC(C)N1C(=O)c2ccccc2NS1(=O)=O [r37]	0	0	4.284	0	0	
CNC(=O)Oc1cccc2ccccc12 [r52]	0	0	0	0	0	
OB(O)O [r41]	0	0	0	0	0	
CCOC(=O)C(Cl)Cc1cc(-n2nc(C)n(C(F)F)c2=O)c(F)cc1Cl (stereo not drawn) [r54]	0	0	0	0	0	
O=C(Nc1ccccc1-c1ccc(Cl)cc1)c1cccnc1Cl [r42]	0	0	0	0	0	
C=CCOC(=O)C(C)(C)OC(=O)c1cc(-n2c(=O)cc(C(F)(F)F)n(C)c2=O)ccc1Cl [r47]	0	0	0	0	0	
N#Cc1c(Cl)c(Cl)c(Cl)c(C#N)c1Cl [r58]	0	0	0	0	0	
COC(=O)c1ccccc1CS(=O)(=O)NC(=O)Nc1nc(OC)cc(OC)n1 [r33]	0	0	0	0	0	
COc1ccc(-c2ccccc2)cc1NNC(=O)OC(C)C [r38]	0	0	0	0	0	
CCSC(=O)N(CC(C)C)CC(C)C [r49]	0	0	0	0	0	
COc1cc(Cl)c(OC)cc1Cl [r57]	0	0	0	0	0	
CC(C)N1C(=O)N(c2ccccc2)CS/C1=N\C(C)(C)C [r45]	0	0	0	0	0	
COc1nc(C)nc(NC(=O)NS(=O)(=O)c2ccccc2Cl)n1 [r63]	0	0	0	0	0	
CC1=C(C(=O)Nc2ccccc2)SCCO1 [r53]	0	0	0	0	0	
CCc1nn(C)c(C(=O)NCc2ccc(C(C)(C)C)cc2)c1Cl [r291]						4.551
O=C1C2CC=CCC2C(=O)N1SC(Cl)(Cl)Cl (stereo not drawn) [r51]	0	0	0	0	0	
Cc1c(COC(=O)C2C(/C=C(\Cl)C(F)(F)F)C2(C)C)cccc1-c1ccccc1 (stereo not drawn) [r39]	0	0	0	0	0	
CCC(C)Nc1c([N+](=O)[O-])cc(C(C)(C)C)cc1[N+](=O)[O-] (stereo not drawn) [r48]	0	0	0	0	0	

Reference: publication PMC3038857, “Using Nuclear Receptor Activity to Stratify Hepatocarcinogens” (PLoS ONE, 2011)
